From US20100137445A1, “PLANT DISEASE CONTROL AGENT, AND PLANT DISEASE CONTROL METHOD” (SUMITOMO CHEMICAL COMPANY ,LIMITED, priority 2007, published 2010)
Like-named read-outs stand apart in the source and are kept apart here.

Test system: Phytophthora infestans
Type: in vivo
Conditions: tomato (Patio) seedling, foliage application
[1] = concentration of present compound 50 ppm
[2] = concentration of present compound 200 ppm

Row | Compound | Control value [1] | Control value [2]
1 | COc1c(F)cc(C(=O)NCC2CCCCC2)cc1F [present compound 9, N-(cyclohexylmethyl)-3,5-difluoro-4-methoxybenzamide] | ++++ (Less than 20% of the lesion spot area on an untreated plant.) | ++++ (Less than 20% of the lesion spot area on an untreated plant.)
2 | COc1ccc(C(=O)NCC2CCCCC2)cc1F [present compound 7, N-(cyclohexylmethyl)-3-fluoro-4-methoxybenzamide] | ++ (40% or more and less than 60% of the lesion spot area on an untreated plant.) | ++++ (Less than 20% of the lesion spot area on an untreated plant.)
